Experimental data taken from US9949948B2, “Artemisinin and its derivatives for use in the treatment of trauma haemorrhage and associated conditions” (Queen Mary University of London, priority 2011, dated 2018).

What was measured:
mice injected with LPS = assay: Organ injury and dysfunction in a mouse model of septic shock (LPS); assay type: in vivo, C57BL/6 mice; details: 10 mg/kg, all three treatment groups (i.p. 1 h post-LPS, i.v. 1 h post-LPS, i.p. 30 min pre-LPS)
Description: Twenty-six male C57BL/6 mice (Harlan Laboratories, Wyton, UK), weighing 20-30 g were used for this experiment. At time point 0 (t=0 h) mice received either LPS (9 mg/kg in 5 ml/kg 0.9% NaCl) or vehicle (5 ml/kg 0.9% NaCl) intraperitoneally (i.p.). Mice were then sacrificed 16-18 h after the injection of LPS by induction of anaesthesia with ketamine (100 mg/ml)/xylazine (20 mg/ml) solution in a 2:1 ratio and removal of the heart.
At the end of the experiment, 0.7 ml blood was collected from the right carotid artery and decanted into serum gel tubes (Sarstedt, Numbrecht, Germany). The samples were centrifuged (9900 rpm for 3 min) to separate serum from which urea, creatinine and alanine aminotransferase (ALT) were measured within 24 hours (Idexx Laboratories Ltd., West Yorkshire, UK).
Share-operated nice received saline (5 ml/kg i.p.) instead of LPS.

[1] = system: rats subjected to regional myocardial ischaemia and reperfusion; assay: Regional myocardial ischaemia and reperfusion, artesunate and dihydroartemisinin; assay type: in vivo, Wistar rats
Description: (§1) Rats were anaesthetised with thiopentone sodium (Intraval® 120 mg/kg i.p.). Anaesthesia was maintained by supplementary injections of thiopentone sodium as required. The trachea was cannulated and the animals were ventilated with a Harvard ventilator (inspiratory oxygen concentration: 30%; 70 strokes/min, tidal volume: 8-10 ml/kg). Body temperature was maintained at 37±1° C. with the aid of a rectal probe thermometer attached to a homeothermic blanket unit (Harvard Apparatus Ltd., Edenbridge, Kent. U.K.). […] The right jugular vein was then cannulated for the administration of drugs and saline. A para-sternal thoracotomy was then performed, using an Electrosurgery device to cauterize the intercostals arteries before cutting through three ribs. The chest was retracted and pericardium dissected from the heart. The left anterior descending (LAD) coronary artery was isolated and a snare occluder was placed around the LAD. The retractor was then removed and the animal was allowed to stabilise for 15 min.
(§2) The occluder was tightened at time 0. After 25 min of LAD-occlusion, the occluder was released to allow reperfusion of the previously ischemic myocardium (2 h). Haemodynamic parameters were continuously monitored. Baseline readings were taken prior to treatment, and, myocardial ischaemia reperfusion (IR) injury. The pressure rate index (PRI), a relative indicator of myocardial oxygen consumption was calculated as a product of the MAP (mmHg) and HR (beats/minute-bpm) and expressed in mm Hg bpm×10^−3.
(§3) At the end of the 2 h reperfusion period, the LAD was re-occluded and 1 ml of Evans Blue dye (2% w/v) was injected into the animal, via the jugular vein. The Evans Blue dye stains the tissue it can circulate through, therefore the non-perfused vascular (occluded) tissue remains un-coloured. Each animal was killed with an over-dose of anaesthetic, the heart excised, and excess dye washed off. […] The ischaemic and non-ischaemic tissue was weighed, and the AAR expressed as a percentage of the left ventricle. The tissue from the AAR was cut into small pieces and incubated with p-nitroblue tetrazolium (NBT, 0.5 mg/ml) for 30 min at 37° C. NBT is a reducing agent that reacts with dehydrogenases present in viable (non-infarcted) tissue to produce a dark blue formazan. Infarcted tissue (non-viable) will not have dehydrogenase activity and will therefore fail to stain. The stained tissue was separated from the infarcted tissue, weighed, and the infarct size expressed as a percentage of the AAR.
(§4) Sham-operated rats were subjected to surgical procedure without myocardial ischaemia and reperfusion.

[2] = system: rats subjected to regional myocardial ischaemia and reperfusion; assay: Regional myocardial ischaemia and reperfusion, vehicle 5% sodium bicarbonate; assay type: in vivo, Wistar rats; details: for infarct size (percentage of the AAR): control 57.6±2.1%; for area at risk: compared to vehicle treated rats
Description: as §1, with “Kent,” for “Kent.”
as §2, §3, §4

burn injury rats = assay: Organ injury and dysfunction induced by burn injury in the rat; assay type: in vivo, Wistar rats; details: 3 mg/kg i.v. 30 min prior to and 30 min after burn injury
Description: Twenty-two male Wistar rats (Harlan, Udine, Italy) weighing 300 to 350 g were anaesthetised with sodium pentobarbital (Eutasil™, 60 mg/kg i.p.; Sanofi Veterinária, Algés, Portugal), which was supplemented as required. Anaesthetised rats were shaved (dorsum and abdomen) and placed onto a thermostatically controlled heating mat (Harvard Apparatus Ltd, Kent, U.K.) and body temperature maintained at 37±1° C. by means of a rectal probe attached to a homeothermic blanket. A tracheotomy was performed to maintain airway patency and to facilitate spontaneous respiration. Thirty minutes prior to burn injury, rats were treated with vehicle or drug, as described in section 3.2. To induce burn injury, a 60% third degree skin burn was induced by immersing dorsal shaved skin in 99° C. water for 10 s using a synthetic foam template. The rats were then dried and placed over the heating mat. Rats were sacrificed at 6 hours after burn injury by overdose of the anaesthetic and serum samples obtained for analysis of organ injury and dysfunction.
Sham-operated rats underwent identical surgical procedures but without burn injury (immersed in room temperature water).

[3] = 1 mg/kg i.v. upon reperfusion, vs control
[4] = bolus 1 mg/kg upon reperfusion, P>0.05 vs Control
[5] = bolus 0.3, 1 or 10 mg/kg upon reperfusion, P>0.05 vs Control

SMILES: C[C@H]1[C@H](OC(=O)CCC(=O)O)O[C@@H]2O[C@@]3(C)CC[C@H]4[C@H](C)CC[C@@H]1[C@@]24OO3 [artesunate]
- rise in serum ALT (mice injected with LPS): no significant effect
- rise in serum creatinine (mice injected with LPS; P>0.05): no significant effect
- rise in serum urea (mice injected with LPS; P>0.05): no significant effect
- infarct size (percentage of the AAR) ([1]; 1 mg/kg i.v. bolus upon reperfusion, from 59.8±3.2, P<0.05): 36.0±1.1%
- Infarct size reduction [1, 3]: 40%
- area at risk ([1]; 1 mg/kg, compared to vehicle treated rats): no significant effect
- fall in mean arterial blood pressure caused by myocardial ischaemia and reperfusion [1, 4]: did not attenuate
- heart rate [1, 4]: did not have a significant effect
- infarct size (percentage of the AAR) ([2]; 0.3 mg/kg i.v. bolus upon reperfusion): 44.0±2.61%
- area at risk ([2]; 0.3 mg/kg): no significant effect
- Infarct size reduction [2, 3]: 40%
- infarct size (percentage of the AAR) ([2]; 1 mg/kg i.v. upon reperfusion, P<0.05): 42.6±1.1%
- area at risk ([2]; 1 mg/kg): no significant effect
- infarct size ([2]; 10 mg/kg i.v. upon reperfusion, P>0.05): no significant effect
- area at risk ([2]; 10 mg/kg): no significant effect
- fall in mean arterial blood pressure caused by myocardial ischaemia and reperfusion [2, 5]: did not attenuate
- heart rate [2, 5]: did not have a significant effect
- rise in serum creatinine (burn injury rats; 6 h after burn, P<0.05): significantly attenuated
- rise in serum urea (burn injury rats; 6 h after burn, P<0.05): significantly attenuated
- rise in serum ALT (burn injury rats; P>0.05): no significant effect
- rise in serum AST (burn injury rats; P>0.05): no significant effect
